The values that follow come from patent US20030162762A1, “Novel cephalosporin compounds and process for preparing the same” (priority 2000, published 2003).

Test in all cases: Minimum Inhibitory Concentration (MIC), agar dilution, standard strains
The subject of one assay is E. faecalis EFS004. In kind it is cell-based. To be noted: Table 2, Mueller-Hinton agar, 37° C., 20 hours; for MIC: Enterococcus faecalis, EFS004, read-out: Minimum Inhibitory Concentration, E. faecalis EFS004. As to the method: (§1) The effectiveness of the compound according to the present invention was determined by obtaining Minimum Inhibitory Concentration (MIC) of the compounds prepared by the above examples (Compounds I-1 to I-41) and vancomycin, which is the known compound having a potent activity against gram-positive strains, as the control drug against the standard strains. Specifically, Minimum Inhibitory Concentration was obtained by diluting the test compound according to a double dilution method, dispersing them in Mueller-Hinton agar medium, inoculating each of the test strain having 10^7 cfu (colony forming unit) per ml in an amount of 2 μl to the medium and then incubating them at 37° C. for 20 hours. From the result of Minimum Inhibitory Concentration test, it can be seen that the compound according to the present invention has a good activity against major pathogenic microorganisms, which cause hospital infection, including MRSA strains.

Another assay deals with S. epidermidis R005. The class given is cell-based. Conditions: Mueller-Hinton agar, 37° C., 20 hours; for MIC: Staphylococcus epidermidis, R005, read-out: Minimum Inhibitory Concentration, S. epidermidis R005. As to the method: as §1
Assay [1] deals with Staphylococcus aureus giorgio. In kind it is cell-based. To be noted: Mueller-Hinton agar, 37° C., 20 hours; for MIC: Staphylococcus aureus, read-out: Minimum Inhibitory Concentration, Staphylococcus aureus giorgio. The protocol: as §1
The subject of a further assay is S. aureus 77. The class given is cell-based, Staphylococcus aureus. Conditions: Mueller-Hinton agar, 37° C., 20 hours; for MIC: Staphylococcus aureus, 77, read-out: Minimum Inhibitory Concentration, S. aureus 77. As to the method:
as §1

Another assay relates to S. aureus K311. The class given is cell-based, Staphylococcus aureus. Conditions: Table 2, Mueller-Hinton agar, 37° C., 20 hours; for MIC: Staphylococcus aureus, K311, read-out: Minimum Inhibitory Concentration, S. aureus K311. As to the method:
as §1

The subject of another assay is E. faecalis L239. The class given is cell-based. To be noted: Table 1; Mueller-Hinton agar, 37° C., 20 hours. As to the method: as §1
For the next assay, the system named is S. aureus 241. In kind it is cell-based, Staphylococcus aureus. To be noted: Table 1; Mueller-Hinton agar, 37° C., 20 hours. The protocol:
as §1

Molecules are shown by their SMILES. ≈ marks a conversion by molar mass, not a printed value.

In the case of `Nc1nc(O)cc(SC/C=C/C2=C(C(=O)O)N3C(=O)[C@@H](NC(=O)CSc4cc(Cl)nc(Cl)c4)[C@H]3SC2)n1` [Compound I-10, (6R,7R)-3-{(E)-3-[(2-amino-6-hydroxy-4-pyrimidinyl)sulfanyl]-1-propenyl}-7-({2-[(2,6-dichloro-4-pyridinyl)sulfanyl]acetyl}amino)-8-oxo-5-thia-1-azabicyclo [4.2.0]oct-2-ene-2-carboxylic acid], the MIC amounted to 1 µg/mL (≈ 1.66 µM) in the assay with E. faecalis EFS004; 0.25 µg/mL (≈ 0.416 µM) with S. epidermidis R005 (Table 2); 0.016 µg/mL (≈ 0.0266 µM) in assay [1] (Table 2); 0.25 µg/mL (≈ 0.416 µM) in the assay with S. aureus 77 (Table 2); 0.5 µg/mL (≈ 0.831 µM) in the assay on S. aureus K311.

Turning to `O=C(CSc1cc(Cl)nc(Cl)c1)N[C@@H]1C(=O)N2C(C(=O)O)=C(/C=C/CSc3nc(O)cc(NCCO)n3)CS[C@H]12` [Compound I-15, (6R,7R)-7-({2-[(2,6-dichloro-4-pyridinyl)sulfanyl]acetyl}amino)-3-[(E)-3-({4-hydroxy-6-[(2-hydroxyethyl)amino]-2-pyrimidinyl]sulfanyl}-1-propenyl]-8-oxo-5-thia-1-azabicyclo[4.2.0]oct-2-ene-2-carboxylic acid], the MIC with E. faecalis EFS004 amounted to 1 µg/mL (≈ 1.55 µM); with S. epidermidis R005 (Table 2), 0.5 µg/mL (≈ 0.775 µM); in assay [1] (Table 2) it was 0.031 µg/mL (≈ 0.048 µM); in the assay on S. aureus 77 (Table 2) it was 0.5 µg/mL (≈ 0.775 µM); in the assay on S. aureus K311, 0.5 µg/mL (≈ 0.775 µM).

Turning to `Cn1c(N)n[n+]2c(SC/C=C/C3=C(C(=O)O)N4C(=O)[C@@H](NC(=O)CSc5cc(Cl)nc(Cl)c5)[C@H]4SC3)nc(N)cc12` [Compound I-14, 2,7-diamino-5-({(E)-3-[(6R,7R)-2-carboxy-7-({2-[(2,6-dichloro-4-pyridinyl)sulfanyl]acetyl}amino)-8-oxo-5-thia-1-azabicyclo[4.2.0]oct-2-en-3-yl]-2-propenyl}sulfanyl)-1-methyl-1H-[1,2,4]triazolo[1,5-c]pyrimidin-4-ium], the “Minimum Inhibitory Concentration, E. faecalis EFS004” value in the assay on E. faecalis EFS004 was 1 µg/mL. Further, the “Minimum Inhibitory Concentration, S. epidermidis R005” value with S. epidermidis R005 (Table 2) was 0.13 µg/mL. Also, the “Minimum Inhibitory Concentration, Staphylococcus aureus giorgio” value in assay [1] (Table 2) was below 0.008 µg/mL. Also, in the assay with S. aureus 77 (Table 2), the “Minimum Inhibitory Concentration, S. aureus 77” value came to 0.13 µg/mL. Besides, in the assay on S. aureus K311, the “Minimum Inhibitory Concentration, S. aureus K311” value was determined as 0.25 µg/mL.

On to `Nc1nc(SC/C=C/C2=C(C(=O)O)N3C(=O)[C@@H](NC(=O)CSc4cc(Cl)nc(Cl)c4)[C@H]3SC2)nc2[nH]ncc12` [Compound I-9, (6R,7R)-3-{(E)-3-[(4-amino-1H-pyrazolo[3,4-d]pyrimidin-6-yl)sulfanyl]-1-propenyl}-7-({2-[(2,6-dichloro-4-pyridinyl)sulfanyl]acetyl}amino)-8-oxo-5-thia-1-azabicyclo[4.2.0]oct-2-ene-2-carboxylic acid], for which the MIC worked out at 1 µg/mL (≈ 1.6 µM) with E. faecalis EFS004; 0.5 µg/mL (≈ 0.799 µM) in the assay on S. epidermidis R005 (Table 2); 0.031 µg/mL (≈ 0.0496 µM) in assay [1] (Table 2); 0.25 µg/mL (≈ 0.4 µM) with S. aureus 77 (Table 2); 1 µg/mL (≈ 1.6 µM) in the assay on S. aureus K311.

Turning to `O=C(CSc1cc(Cl)nc(Cl)c1)N[C@@H]1C(=O)N2C(C(=O)O)=C(/C=C/CSc3ncnc4[nH]ncc34)CS[C@H]12` [Compound I-7, (6R,7R)-7-({2-[(2,6-dichloro-4-pyridinyl)sulfanyl]acetyl}amino)-8-oxo-3-[(E)-3-(1H-pyrazolo[3,4-d]pyrimidin-4-ylsulfanyl]-1-propenyl]-5-thia-1-azabicyclo[4.2.0]oct-2-ene-2-carboxylic acid], the MIC with E. faecalis EFS004 was 0.5 µg/mL (≈ 0.819 µM); in the assay on S. epidermidis R005 (Table 2) it was 0.25 µg/mL (≈ 0.409 µM); in assay [1] (Table 2), below 0.008 µg/mL; in the assay with S. aureus 77 (Table 2), 0.25 µg/mL (≈ 0.409 µM); in the assay with S. aureus K311, 0.5 µg/mL (≈ 0.819 µM).

As to `Nc1cc(N)[n+](C/C=C/C2=C(C(=O)O)N3C(=O)[C@@H](NC(=O)CSc4cc(Cl)nc(Cl)c4)[C@H]3SC2)cn1` [Compound I-18], the “Minimum Inhibitory Concentration, E. faecalis EFS004” value in the assay on E. faecalis EFS004 stood at 1 µg/mL. Besides, the “Minimum Inhibitory Concentration, S. epidermidis R005” value in the assay with S. epidermidis R005 (Table 2) was determined as 0.25 µg/mL. For the same molecule, in assay [1] (Table 2), the “Minimum Inhibitory Concentration, Staphylococcus aureus giorgio” value stood at 0.016 µg/mL. For the same molecule, the “Minimum Inhibitory Concentration, S. aureus 77” value with S. aureus 77 (Table 2) amounted to 0.25 µg/mL. Besides, the “Minimum Inhibitory Concentration, S. aureus K311” value in the assay on S. aureus K311 came out at 1 µg/mL.

Regarding `Nc1nc(SC/C=C/C2=C(C(=O)O)N3C(=O)[C@@H](NC(=O)CSc4cc(Cl)nc(Cl)c4)[C@H]3SC2)c2c([n+]1N)CCC2` [Compound I-17, 1,2-diamino-4-({(E)-3-[(6R,7R)-2-carboxy-7-({2-[(2,6-dichloro-4-pyridinyl)sulfanyl]acetyl}amino)-8-oxo-5-thia-1-azabicyclo[4.2.0]oct-2-en-3-yl]-2-propenyl}sulfanyl)-6,7-dihydro-5H-cyclopenta[d]pyrimidin-1-ium], the “Minimum Inhibitory Concentration, E. faecalis EFS004” value in the assay with E. faecalis EFS004 worked out at 0.5 µg/mL. Also, the “Minimum Inhibitory Concentration, S. epidermidis R005” value in the assay on S. epidermidis R005 (Table 2) is 0.25 µg/mL. In addition, in assay [1] (Table 2), the “Minimum Inhibitory Concentration, Staphylococcus aureus giorgio” value is below 0.008 µg/mL. Further, the “Minimum Inhibitory Concentration, S. aureus 77” value with S. aureus 77 (Table 2) turned out to be 0.25 µg/mL. Also, the “Minimum Inhibitory Concentration, S. aureus K311” value with S. aureus K311 amounted to 0.5 µg/mL.

In the case of `Nc1cc(N)nc(SC/C=C/C2=C(C(=O)O)N3C(=O)[C@@H](NC(=O)CSc4cc(Cl)nc(Cl)c4)[C@H]3SC2)n1` [Compound I-8, (6R,7R)-3-{(E)-3-[(4,6-diamino-2-pyrimidinyl)sulfanyl]-1-propenyl}-7-({2-[(2,6-dichloro-4-pyridinyl)sulfanyl]acetyl}amino)-8-oxo-5-thia-1-azabicyclo[4.2.0]oct-2-ene-2-carboxylic acid], the MIC with E. faecalis EFS004 was found to be 1 µg/mL (≈ 1.67 µM); with S. epidermidis R005 (Table 2), 0.5 µg/mL (≈ 0.833 µM); in assay [1] (Table 2) it was 0.031 µg/mL (≈ 0.0516 µM); in the assay on S. aureus 77 (Table 2) it was 0.25 µg/mL (≈ 0.416 µM); in the assay with S. aureus K311, 0.5 µg/mL (≈ 0.833 µM).

As to `Nc1cc(SC/C=C/C2=C(C(=O)O)N3C(=O)[C@@H](NC(=O)CSc4cc(Cl)nc(Cl)c4)[C@H]3SC2)nc(N)n1` [Compound I-11, (6R,7R)-3-{(E)-3-[(2,6-diamino-4-pyrimidinyl)sulfanyl]-1-propenyl}-7-( {2-[(2,6-dichloro-4-pyridinyl)sulfanyl]acetyl}amino)-8-oxo-5-thia-1-azabicyclo[4.2.0]oct-2-ene-2-carboxylic acid], the MIC with E. faecalis EFS004 stood at 2 µg/mL (≈ 3.33 µM); in the assay on S. epidermidis R005 (Table 2), 0.5 µg/mL (≈ 0.833 µM); in assay [1] (Table 2), 0.016 µg/mL (≈ 0.0266 µM); with S. aureus 77 (Table 2), 0.25 µg/mL (≈ 0.416 µM); in the assay with S. aureus K311, 0.5 µg/mL (≈ 0.833 µM).

As to `CC[n+]1c(N)cc(N)nc1SC/C=C/C1=C(C(=O)O)N2C(=O)[C@@H](NC(=O)CSc3cc(Cl)nc(Cl)c3)[C@H]2SC1` [Compound I-16, 4,6-diamino-2-({(E)-3-[(6R,7R)-2-carboxy-7-({2-[(2,6-dichloro-4-pyridinyl)sulfanyl]acetyl}amino)-8-oxo-5-thia-1-azabicyclo[4.2.0]oct-2-en-3-yl]-2-propenyl}sulfanyl)-1-ethylpyrimidin-1-ium], in the assay with E. faecalis EFS004, the “Minimum Inhibitory Concentration, E. faecalis EFS004” value was 0.5 µg/mL. Moreover, the “Minimum Inhibitory Concentration, S. epidermidis R005” value in the assay on S. epidermidis R005 (Table 2) came out at 0.13 µg/mL. The “Minimum Inhibitory Concentration, Staphylococcus aureus giorgio” value in assay [1] (Table 2) is below 0.008 µg/mL. Moreover, the “Minimum Inhibitory Concentration, S. aureus 77” value in the assay with S. aureus 77 (Table 2) stood at 0.13 µg/mL. Also, the “Minimum Inhibitory Concentration, S. aureus K311” value in the assay with S. aureus K311 was found to be 0.5 µg/mL.

Regarding `CCSc1nc(C)cc(SC/C=C/C2=C(C(=O)O)N3C(=O)[C@@H](NC(=O)CSc4cc(Cl)nc(Cl)c4)[C@H]3SC2)n1` [Compound I-12, (6R,7R)-7-({2-[(2,6-dichloro-4-pyridinyl)sulfanyl]acetyl}amino)-3-((E)-3-{[2-(ethylsulfanyl)-6-methyl-4-pyrimidinyl]sulfanyl}-1-propenyl)-8-oxo-5-thia-1-azabicyclo[4.2.0]oct-2-ene-2-carboxylic acid], the MIC came to 0.5 µg/mL (≈ 0.776 µM) with E. faecalis EFS004; 0.5 µg/mL (≈ 0.776 µM) in the assay on S. epidermidis R005 (Table 2); 0.031 µg/mL (≈ 0.0481 µM) in assay [1] (Table 2); 0.5 µg/mL (≈ 0.776 µM) in the assay on S. aureus 77 (Table 2); 1 µg/mL (≈ 1.55 µM) in the assay with S. aureus K311.

Consider `Cc1c(N)nc[n+](C/C=C/C2=C(C(=O)O)N3C(=O)[C@@H](NC(=O)CSc4cc(Cl)ccc4Cl)[C@H]3SC2)c1N` [Compound I-31], for which the “Minimum Inhibitory Concentration, E. faecalis L239” value with E. faecalis L239 turned out to be 2 µg/mL. The “Minimum Inhibitory Concentration, S. epidermidis R005” value in the assay on S. epidermidis R005 (Table 1) is 0.25 µg/mL. In addition, the “Minimum Inhibitory Concentration, Staphylococcus aureus giorgio” value in assay [1] (Table 1) turned out to be 0.016 µg/mL. Further, the “Minimum Inhibitory Concentration, S. aureus 241” value with S. aureus 241 was 8 µg/mL. In the assay with S. aureus 77 (Table 1), the “Minimum Inhibitory Concentration, S. aureus 77” value came out at 1 µg/mL.
